Test results reported in PubChem BioAssay AID248 (DTP/NCI, 2004).
Inconclusive results and toxic doses are left out. No stated cut-off is given here; in the data, active means T/C of 150% or more; inactive means T/C below 125%.

System: L1210 leukemia ip in BDF1 mice, survival T/C
Experiment: NCI In Vivo Anticancer Drug Screen. Data for tumor model L1210 Leukemia (intraperitoneal) in B6D2F1 (BDF1) mice
Details: endpoint: mean survival time, higher = longer survival
Procedure, shortened: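 Transplanted-tumor mice were given test agent; controls received vehicle only. Survival readings from the two groups were divided (treated over control).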

[1] = dose: 100.0 mg/kg/injection, schedule: Q01DX001 (ip), vehicle: carboxymethylcellulose (CMC)
[2] = dose: 200.0 mg/kg/injection, schedule: Q01DX001 (ip), vehicle: carboxymethylcellulose (CMC)
[3] = dose: 400.0 mg/kg/injection, schedule: Q01DX001 (ip), vehicle: carboxymethylcellulose (CMC)
[4] = dose: 50.0 mg/kg/injection, schedule: Q01DX001 (ip), vehicle: carboxymethylcellulose (CMC)
[5] = dose: 100.0 mg/kg/injection, schedule: Q01DX009 (ip), vehicle: Klucel (hydroxypropylcellulose) (HPC)
[6] = dose: 100.0 mg/kg/injection, schedule: Q04DX003 (ip), vehicle: Klucel (hydroxypropylcellulose) (HPC)
[7] = dose: 200.0 mg/kg/injection, schedule: Q01DX009 (ip), vehicle: Klucel (hydroxypropylcellulose) (HPC)
[8] = dose: 200.0 mg/kg/injection, schedule: Q04DX003 (ip), vehicle: Klucel (hydroxypropylcellulose) (HPC)
[9] = dose: 400.0 mg/kg/injection, schedule: Q01DX009 (ip), vehicle: Klucel (hydroxypropylcellulose) (HPC)
[10] = dose: 400.0 mg/kg/injection, schedule: Q04DX003 (ip), vehicle: Klucel (hydroxypropylcellulose) (HPC)
[11] = dose: 100.0 mg/kg/injection, schedule: Q01DX009 (ip), vehicle: saline with Tween-80
[12] = dose: 200.0 mg/kg/injection, schedule: Q01DX009 (ip), vehicle: saline with Tween-80
[13] = dose: 100.0 mg/kg/injection, schedule: Q01DX001 (ip), vehicle: other
[14] = dose: 200.0 mg/kg/injection, schedule: Q01DX001 (ip), vehicle: other
[15] = dose: 400.0 mg/kg/injection, schedule: Q01DX001 (ip), vehicle: other

Measured: T/C

O=C1CC23CCC(=O)C2(CC3)C1 (stereo not given)
inactive: dose: 75.0 mg/kg/injection, schedule: Q04DX002 (ip), vehicle: saline 103 % of control | dose: 150.0 mg/kg/injection, schedule: Q04DX002 (ip), vehicle: saline 103 % of control | dose: 300.0 mg/kg/injection, schedule: Q04DX002 (ip), vehicle: saline 100 % of control

O=C(c1ccccc1)N(CCCl)C(=O)N(CCCl)C(=O)c1ccccc1
inactive: dose: 75.0 mg/kg/injection, schedule: Q01DX001 (ip), vehicle: carboxymethylcellulose (CMC) 104 % of control | dose: 75.0 mg/kg/injection, schedule: Q01DX009 (ip), vehicle: saline with Tween-80 95 % of control | dose: 75.0 mg/kg/injection, schedule: Q04DX003 (ip), vehicle: saline with Tween-80 91 % of control | dose: 150.0 mg/kg/injection, schedule: Q01DX001 (ip), vehicle: carboxymethylcellulose (CMC) 101 % of control | dose: 150.0 mg/kg/injection, schedule: Q01DX009 (ip), vehicle: saline with Tween-80 98 % of control | dose: 150.0 mg/kg/injection, schedule: Q04DX003 (ip), vehicle: saline with Tween-80 92 % of control | dose: 300.0 mg/kg/injection, schedule: Q01DX001 (ip), vehicle: carboxymethylcellulose (CMC) 103 % of control | dose: 300.0 mg/kg/injection, schedule: Q04DX003 (ip), vehicle: saline with Tween-80 89 % of control

Nc1c(Br)cc2c([nH]c(=O)c3cc(Br)ccc32)c1Br
inactive: [1] 101 % of control | [2] 104 % of control | [3] 106 % of control

CCCCCCCCCC(C)(O)C#CC(C)(O)CCCCCCCCC (stereo not given)
inactive: [4] 93 % of control | dose: 50.0 mg/kg/injection, schedule: Q04DX003 (ip), vehicle: carboxymethylcellulose (CMC) 91 % of control | [1] 95 % of control | dose: 100.0 mg/kg/injection, schedule: Q04DX003 (ip), vehicle: carboxymethylcellulose (CMC) 89 % of control | [2] 91 % of control | dose: 200.0 mg/kg/injection, schedule: Q04DX003 (ip), vehicle: carboxymethylcellulose (CMC) 89 % of control | [3] 100 % of control

O=C1Nc2ccccc2C12CNCS2 (stereo not given)
inactive: dose: 75.0 mg/kg/injection, schedule: Q01DX001 (ip), vehicle: saline 104 % of control | dose: 150.0 mg/kg/injection, schedule: Q01DX001 (ip), vehicle: saline 98 % of control | dose: 300.0 mg/kg/injection, schedule: Q01DX001 (ip), vehicle: saline 95 % of control

CN(C)c1ccc(C(=O)C(O)c2ccccc2)cc1 (stereo not given)
inactive: [5] 92 % of control | [6] 98 % of control | [7] 88 % of control | [8] 100 % of control | [9] 88 % of control | [10] 96 % of control

COc1ccc(NC(=O)Nc2cc([N+](=O)[O-])ccc2C)c(OC)c1
inactive: dose: 100.0 mg/kg/injection, schedule: Q04DX002 (ip), vehicle: Klucel (hydroxypropylcellulose) (HPC) 92 % of control | dose: 200.0 mg/kg/injection, schedule: Q04DX002 (ip), vehicle: Klucel (hydroxypropylcellulose) (HPC) 108 % of control | dose: 400.0 mg/kg/injection, schedule: Q04DX002 (ip), vehicle: Klucel (hydroxypropylcellulose) (HPC) 92 % of control

C/C(=N\NC(=S)Nc1cc(Cl)ccc1Cl)c1ccc(O)c(C)c1
inactive: dose: 12.5 mg/kg/injection, schedule: Q04DX002 (ip), vehicle: Klucel (hydroxypropylcellulose) (HPC) 102 % of control | dose: 25.0 mg/kg/injection, schedule: Q04DX002 (ip), vehicle: Klucel (hydroxypropylcellulose) (HPC) 102 % of control | dose: 50.0 mg/kg/injection, schedule: Q04DX002 (ip), vehicle: Klucel (hydroxypropylcellulose) (HPC) 105 % of control

CCOC(=O)NCc1ccccc1
inactive: [5] 101 % of control | [6] 98 % of control | [7] 106 % of control | [8] 95 % of control | [9] 95 % of control | [10] 101 % of control

CC1=C(c2ccccc2)OS(=O)(=O)NC1=O
inactive: dose: 100.0 mg/kg/injection, schedule: Q04DX003 (ip), vehicle: saline 100 % of control | dose: 200.0 mg/kg/injection, schedule: Q04DX003 (ip), vehicle: saline 97 % of control | dose: 400.0 mg/kg/injection, schedule: Q04DX003 (ip), vehicle: saline 101 % of control

O=C(O)c1cc(O)ccc1O
inactive: dose: 100.0 mg/kg/injection, schedule: Q04DX003 (ip), vehicle: saline with Tween-80 100 % of control | dose: 200.0 mg/kg/injection, schedule: Q04DX003 (ip), vehicle: saline with Tween-80 97 % of control

NC(CCCO)Cc1cc2ccccc2c2ccccc12 (stereo not given)
inactive: dose: 100.0 mg/kg/injection, schedule: Q01DX001 (ip), vehicle: saline 101 % of control | dose: 200.0 mg/kg/injection, schedule: Q01DX001 (ip), vehicle: saline 101 % of control | dose: 400.0 mg/kg/injection, schedule: Q01DX001 (ip), vehicle: saline 109 % of control

NCc1c(Cl)c(Cl)c(Cl)c(CN)c1Cl
inactive: [4] 89 % of control | dose: 50.0 mg/kg/injection, schedule: Q01DX009 (ip), vehicle: saline with Tween-80 97 % of control | [1] 94 % of control | [11] 102 % of control | [12] 93 % of control

O=C(C[P+](c1ccccc1)(c1ccccc1)c1ccccc1)c1ccc(Br)cc1
inactive: dose: 50.0 mg/kg/injection, schedule: Q01DX001 (ip), vehicle: other 100 % of control | [13] 87 % of control | [14] 103 % of control | [15] 105 % of control

Cc1ccc2nn(-c3ccc(O)cc3)nc2c1
inactive: [1] 98 % of control | [2] 93 % of control | [3] 96 % of control

COc1ccc2c(c1)CCCN2CCC#N
inactive: dose: 50.0 mg/kg/injection, schedule: Q04DX003 (ip), vehicle: other 106 % of control | dose: 100.0 mg/kg/injection, schedule: Q04DX003 (ip), vehicle: other 92 % of control | dose: 200.0 mg/kg/injection, schedule: Q04DX003 (ip), vehicle: other 108 % of control | dose: 400.0 mg/kg/injection, schedule: Q04DX003 (ip), vehicle: other 99 % of control

CN1C(=O)C2C=C(Cl)C1c1ccccc12 (stereo not given)
inactive: [13] 102 % of control | [14] 94 % of control | [15] 110 % of control

NN1C(=O)c2ccccc2C1=O
inactive: [11] 100 % of control | [12] 95 % of control | dose: 400.0 mg/kg/injection, schedule: Q01DX009 (ip), vehicle: saline with Tween-80 92 % of control

Cc1cccc(C)c1SSc1c(C)cccc1C
inactive: dose: 50.0 mg/kg/injection, schedule: Q04DX002 (ip), vehicle: other 96 % of control | dose: 100.0 mg/kg/injection, schedule: Q04DX002 (ip), vehicle: other 108 % of control | dose: 200.0 mg/kg/injection, schedule: Q04DX002 (ip), vehicle: other 101 % of control
